Measured values published in US20230064324A1, “NEW USES FOR STEVIOL” (SUNTORY HOLDINGS LIMITED, priority 2019, published 2023).
Where two headings read alike, the source gives them in different places.

Legend:
CHOP [1] = assay: CHOP expression in neuronal cells under endoplasmic reticulum stress (RT-PCR); format: cell-based, Rat; conditions: pretreatment 1 h, tunicamycin 0.16 μM 24 h
Method: (§1) Neuronal cells were prepared as follows. PC12 cells were reconstituted by seeding at 2×10^6 cells/flask to a collagen IV-coated flask, and precultured for 3 days in the growth medium in a CO2 incubator.
(§2) The lysate was preserved at −80° C. until use.
(§3) The internal standard gene used was GAPDH gene.

GRP78 [2] = assay: GRP78 expression in neuronal cells under endoplasmic reticulum stress (RT-PCR); format: cell-based, Rat; conditions: pretreatment 24 h, tunicamycin 1.0 μM 24 h
Method: as §1, §2, §3

CHOP [3] = assay: CHOP expression in adipocytes under endoplasmic reticulum stress (RT-PCR); format: cell-based, Human; conditions: pretreatment 24 h, tunicamycin 0.65 μM 24 h
Method: (§4) Adipocytes were prepared as follows. Normal human subcutaneous preadipocytes were reconstituted in a T75 flask using a growth medium (PBM-2 medium, Cat. No. PT-8002, Lonza, supplemented with 10% FBS, 2 mM L-glutamine, 50 μg/mL gentamycin, and 37 ng/mL amphotericin-B), and precultured for 3 days in a CO2 incubator (37° C., 5% CO2; the same holds true for the description below).
as §2, §3

GRP78 [4] = assay: GRP78 expression in adipocytes under endoplasmic reticulum stress (RT-PCR); format: cell-based, Human; conditions: pretreatment 24 h, tunicamycin 0.65 μM 24 h
Method: as §4, §2, §3

CHOP [5] = conditions: pretreatment 4 h, tunicamycin 0.65 μM 24 h
Method: (§5) Steviol was evaluated for its influence on endoplasmic reticulum stress in each type of cell by using endoplasmic reticulum stress markers CHOP and GRP78 as an index. The test cells used were neuronal cells (induced from PC12 cells), adipocytes (normal human subcutaneous preadipocytes, Cat. No. PT-5020, Lonza Group AG), hepatocytes (HepG2, Cat. No. JCRB1054, JCRB) and pancreatic cells (βTC6, ATCC® CRL-11506).
(§6) Hepatocytes were prepared as follow. HepG2 cells were seeded to a T75 flask and precultured for 1 day in a CO2 incubator using a growth medium (DMEM (high glucose, Cat. No. D5796, Sigma-Aldrich) supplemented with 10% FBS (Cat. No. 172012, Sigma-Aldrich), 1% penicillin-streptomycin (Cat. No. 09367-34, Nacalai Tesque, Inc.)).
(§7) 4PA (P21005, Sigma-Aldrich Co., LLC) was dissolved in a medium and then added at a predetermined concentration to a differentiation medium or a growth medium.
(§8) After the completion of endoplasmic reticulum stress induction treatment, the expression levels of CHOP and GRP78 were measured to evaluate the degree of endoplasmic reticulum stress. First, FasteLane lysate (RNA) was prepared for RNA extraction using FastLane Cell Probe kit (Cat. No. 216413, Qiagen N.V.). After removal of the medium, each well was washed by the addition of 125 μL of Buffer FCW and its immediate removal. Then, 50 μL of Cell processing mix was added to each well, followed by incubation at room temperature for 5 minutes to prepare FasteLane lysate. Next, the FasteLane lysate was transferred to a PCR tube and incubated at 75° C. for 5 minutes. The lysate was preserved at −80° C. until use.
(§9) Gene expression analysis was carried out by the following procedures. One Step real-time RT-PCR was performed with the composition of Table 8 using QuantiTect Probe RT-PCR Kit attached to FastLane Cell Probe kit.
(§10) RT-PCR reaction was performed under conditions of 50° C. for 30 minutes, 95° C. for 15 minutes, and (94° C. for 15 seconds and 60° C. for 60 seconds)×40 cycles. The internal standard gene used was GAPDH gene. A relative expression level was calculated by the ΔΔCt method. Significant difference among tunicamycin addition groups (vehicle group vs positive control group/steviol addition group) was tested by the Dunnett test.

GRP78 [6] = conditions: pretreatment 4 h, tunicamycin 0.65 μM 24 h
Method: as §5, §6, §7, §8, §9, §10

CHOP [7] = assay: CHOP expression in pancreatic cells (βTC6) under endoplasmic reticulum stress (RT-PCR); format: cell-based, Mouse; conditions: pretreatment 4 h, tunicamycin 0.16 μM 24 h
Method: as §2, §3

GRP78 [8] = assay: GRP78 expression in pancreatic cells (βTC6) under endoplasmic reticulum stress (RT-PCR); format: cell-based, Mouse; conditions: pretreatment 4 h, tunicamycin 0.16 μM 24 h
Method: as §2, §3

PC12 cells (clone HS) = assay: Neurite elongation-promoting effect on PC12 cells (neurite length per cell, Operetta CLS); format: cell-based, Rat; conditions: positive control, 50 ng/mL NGF, 3 days, negative control=100%
Method: PC12 cells (clone HS) were precultured using a growth medium in the same manner as in Example 1. […] The cells thus cultured were subjected to cell membrane staining using Cell Membrane Stain attached to Neurite Outgrowth Staining Kit (Thermo Fisher Scientific Inc.) and nuclear staining using Hoechst 33342 (Cat. No. H3570). Specifically, the medium was replaced with 100 μL of a fixative and staining solution (prepared by adding a 1/1000 amount each of Cell Membrane Stain (1000×) and Hoechst 33342 and a 1/25 amount of a formaldehyde solution (Cat. No. 061-00416, FUJIFILM Wako Pure Chemical Corp.) to DPBS (++) (Cat. No. 14040133, Thermo Fisher Scientific Inc.)), followed by incubation for 20 minutes in a CO2 incubator (5% CO2, 37° C., humid). […] Photographing and quantitative analysis were carried out using Operetta CLS (Perkin Elmer, Inc.), and a neurite length per cell was calculated. Nine fields of view at the center of each well were photographed using a 10× objective lens. A test medium supplemented with 50 ng/mL NGF was used as a positive control, and a vehicle control composed of a differentiation medium supplemented with 0.1% DMSO (final concentration) was used as a negative control.

Molecule: O=C(O)CCCc1ccccc1 [4PA, reference compound]
- Expression level of CHOP in neuronal cells (relative to GAPDH, untreated=1) (CHOP [1]; 4PA 0.1 mM): 6.04
- Expression level of CHOP in neuronal cells (relative to GAPDH, untreated=1) (CHOP [1]; 4PA 0.3 mM): 5.87
- Expression level of GRP78 in neuronal cells (relative to GAPDH, untreated=1) (GRP78 [2]; 4PA 0.1 mM): 19.72
- Expression level of GRP78 in neuronal cells (relative to GAPDH, untreated=1) (GRP78 [2]; 4PA 0.3 mM): 20.05
- Expression level of CHOP in adipocytes (relative to GAPDH, untreated=1) (CHOP [3]; 4PA 0.1 mM): 3.52
- Expression level of CHOP in adipocytes (relative to GAPDH, untreated=1) (CHOP [3]; 4PA 1 mM): 3.22
- Expression level of GRP78 in adipocytes (relative to GAPDH, untreated=1) (GRP78 [4]; 4PA 0.1 mM): 4.78
- Expression level of GRP78 in adipocytes (relative to GAPDH, untreated=1) (GRP78 [4]; 4PA 1 mM): 4.25
- Expression level of CHOP in hepatocytes (relative to GAPDH, untreated=1) (CHOP [5]; 4PA 0.1 mM): 3.23
- Expression level of CHOP in hepatocytes (relative to GAPDH, untreated=1) (CHOP [5]; 4PA 0.3 mM): 2.79
- Expression level of CHOP in hepatocytes (relative to GAPDH, untreated=1) (CHOP [5]; 4PA 1 mM): 2.13
- Expression level of GRP78 in hepatocytes (relative to GAPDH, untreated=1) (GRP78 [6]; 4PA 0.1 mM): 2.82
- Expression level of GRP78 in hepatocytes (relative to GAPDH, untreated=1) (GRP78 [6]; 4PA 0.3 mM): 2.49
- Expression level of GRP78 in hepatocytes (relative to GAPDH, untreated=1) (GRP78 [6]; 4PA 1 mM): 1.96
- Expression level of CHOP in pancreatic cells (relative to GAPDH, untreated=1) (CHOP [7]; 4PA 0.3 mM): 2.53
- Expression level of CHOP in pancreatic cells (relative to GAPDH, untreated=1) (CHOP [7]; 4PA 1 mM): 1.78
- Expression level of CHOP in pancreatic cells (relative to GAPDH, untreated=1) (CHOP [7]; 4PA 3 mM): 1.71
- Expression level of CHOP in pancreatic cells (relative to GAPDH, untreated=1) (CHOP [7]; 4PA 10 mM): 2.47
- Expression level of GRP78 in pancreatic cells (relative to GAPDH, untreated=1) (GRP78 [8]; 4PA 0.3 mM): 2.33
- Expression level of GRP78 in pancreatic cells (relative to GAPDH, untreated=1) (GRP78 [8]; 4PA 1 mM): 2.37
- Expression level of GRP78 in pancreatic cells (relative to GAPDH, untreated=1) (GRP78 [8]; 4PA 3 mM): 1.66
- Expression level of GRP78 in pancreatic cells (relative to GAPDH, untreated=1) (GRP78 [8]; 4PA 10 mM): 1.22

Molecule: IGF-1: positive control, 100 ng/mL IGF-1 (Cat. No. SRP4121, Sigma-Aldrich)
- Expression level of CHOP in neuronal cells (relative to GAPDH, untreated=1) (CHOP [1]; IGF-1 100 ng/mL): 5.97
- Expression level of GRP78 in neuronal cells (relative to GAPDH, untreated=1) (GRP78 [2]; IGF-1 100 ng/mL): 19.77

Molecule: NGF: positive control, 50 ng/mL NGF (Cat. No. 13257019, Thermo Fisher Scientific), differentiation inducer
- Relative neurite length (%) (PC12 cells (clone HS)): 269.4%
